BindingDB's records for doi:10.1021/acsmedchemlett.0c00651 (Philipps University, 2021)

What was measured:
Plasminogen = Plasminogen (Homo sapiens, UniProt P00747); test: Inhibition pf human plasmin using Mes-Darg-Phe-Arg-AMC as substrate by fluorescence assay
Prothrombin = Prothrombin (Bos taurus, UniProt P00735); test: Inhibition of bovine thrombin using Tos-Gly-Pro-Arg-AMC as substrate by fluorescence assay
Coagulation factor X = Coagulation factor X (Homo sapiens, UniProt P00742); test: Inhibition of human factor Xa using Mes-Darg-Pro-Arg-AMC as flurogenic substrate by fluorescence assay
Chain of Coagulation factor X (P00742 41-179 limits assumed): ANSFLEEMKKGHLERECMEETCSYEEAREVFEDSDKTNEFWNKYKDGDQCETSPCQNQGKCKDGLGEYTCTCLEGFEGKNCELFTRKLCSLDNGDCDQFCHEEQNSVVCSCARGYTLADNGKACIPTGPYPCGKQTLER
Chain of Coagulation factor X (P00742 235-488 limits assumed): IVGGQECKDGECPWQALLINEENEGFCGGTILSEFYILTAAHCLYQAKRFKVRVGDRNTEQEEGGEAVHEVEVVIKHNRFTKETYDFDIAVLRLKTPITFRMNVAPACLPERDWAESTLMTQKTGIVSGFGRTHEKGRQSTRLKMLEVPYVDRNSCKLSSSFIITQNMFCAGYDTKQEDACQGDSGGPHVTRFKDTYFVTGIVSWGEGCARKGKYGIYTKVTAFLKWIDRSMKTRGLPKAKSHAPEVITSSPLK

Measured: Ki

Chain of Plasminogen (P00747 97-580 limits assumed): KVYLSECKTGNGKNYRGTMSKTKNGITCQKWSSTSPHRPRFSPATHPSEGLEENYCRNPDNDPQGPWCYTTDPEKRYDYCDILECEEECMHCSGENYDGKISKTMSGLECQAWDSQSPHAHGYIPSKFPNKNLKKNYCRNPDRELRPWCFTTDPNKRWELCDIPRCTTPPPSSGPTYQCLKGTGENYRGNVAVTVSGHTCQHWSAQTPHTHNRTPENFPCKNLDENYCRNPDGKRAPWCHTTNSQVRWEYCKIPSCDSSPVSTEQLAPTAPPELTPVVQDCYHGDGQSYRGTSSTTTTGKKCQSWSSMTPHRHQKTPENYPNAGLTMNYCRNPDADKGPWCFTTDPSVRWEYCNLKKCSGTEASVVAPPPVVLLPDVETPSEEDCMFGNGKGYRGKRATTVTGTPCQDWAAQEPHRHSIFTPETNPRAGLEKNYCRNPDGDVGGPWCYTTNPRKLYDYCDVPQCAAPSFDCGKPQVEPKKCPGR
Chain of Plasminogen (P00747 581-810 limits assumed): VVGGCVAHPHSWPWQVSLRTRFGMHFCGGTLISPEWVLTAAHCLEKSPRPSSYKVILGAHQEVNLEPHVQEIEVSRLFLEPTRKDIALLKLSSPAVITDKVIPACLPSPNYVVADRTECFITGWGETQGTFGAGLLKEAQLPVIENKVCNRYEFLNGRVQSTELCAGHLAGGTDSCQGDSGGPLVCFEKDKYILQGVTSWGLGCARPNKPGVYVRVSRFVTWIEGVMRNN

CC(C)(C)[C@H](NC(=O)[C@H](CCONC(=N)N)NC(=O)Cc1ccc(CNC(=N)N)cc1)C(=O)N[C@@H](CCONC(=N)N)C(=O)NCc1ccc(C(=N)N)cc1
> 3000 nM: all assays above
